Calls of active or inactive are those of the source. The calls are words filed in the database; no cut-off is given here.
Columns and labels:
B16 [1] = test: Antineoplastic activity against mouse B16 cells allografted in BDF1 mouse assessed as survival at 2 mg/kg qd for 9 days; format: functional, organism-based; design: dose 2 mg/kg
B16 [2] = test: Antineoplastic activity against mouse B16 cells allografted in BDF1 mouse at 2 mg/kg qd for 9 days relative to control; format: functional
B16 [3] = test: Antineoplastic activity against mouse B16 cells allografted in BDF1 mouse assessed as survival at 1 mg/kg qd for 9 days; format: functional, organism-based; design: dose 1 mg/kg
B16 [4] = test: Antineoplastic activity against mouse B16 cells allografted in BDF1 mouse at 1 mg/kg qd for 9 days relative to control; format: functional
B16 [5] = test: Antineoplastic activity against mouse B16 cells allografted in BDF1 mouse assessed as survival at 0.5 mg/kg qd for 9 days; format: functional, organism-based; design: dose 0.5 mg/kg
B16 [6] = test: Antineoplastic activity against mouse B16 cells allografted in BDF1 mouse at 0.5 mg/kg qd for 9 days relative to control; format: functional
B16 [7] = test: Antineoplastic activity against mouse B16 cells allografted in BDF1 mouse assessed as survival at 0.25 mg/kg qd for 9 days; format: functional, organism-based; design: dose 0.25 mg/kg
B16 [8] = test: Antineoplastic activity against mouse B16 cells allografted in BDF1 mouse at 0.25 mg/kg qd for 9 days relative to control; format: functional
Colon 26 [9] = test: Antineoplastic activity against mouse Colon 26 cells allografted in CDF1 mouse assessed as survival at 1.08 mg/kg qd for 9 days; format: functional, organism-based; design: dose 1.08 mg/kg
Colon 26 [10] = test: Antineoplastic activity against mouse Colon 26 cells allografted in CDF1 mouse at 1.08 mg/kg qd for 9 days relative to control; format: functional
Colon 26 [11] = test: Antineoplastic activity against mouse Colon 26 cells allografted in CDF1 mouse assessed as survival at 0.69 mg/kg qd for 9 days; format: functional, organism-based; design: dose 0.69 mg/kg
Colon 26 [12] = test: Antineoplastic activity against mouse Colon 26 cells allografted in CDF1 mouse at 0.69 mg/kg qd for 9 days relative to control; format: functional
Colon 26 [13] = test: Antineoplastic activity against mouse Colon 26 cells allografted in CDF1 mouse assessed as survival at 0.39 mg/kg qd for 9 days; format: functional, organism-based; design: dose 0.39 mg/kg
Colon 26 [14] = test: Antineoplastic activity against mouse Colon 26 cells allografted in CDF1 mouse at 0.39 mg/kg qd for 9 days relative to control; format: functional
L1210 [15] = test: Antineoplastic activity against mouse L1210 cells allografted in CDF1 mouse assessed as survival at 18 mg/kg qd for 9 days; format: functional, organism-based; design: dose 18 mg/kg
L1210 [16] = test: Antineoplastic activity against mouse L1210 cells allografted in CDF1 mouse at 18 mg/kg qd for 9 days relative to control; format: functional
L1210 [17] = test: Antineoplastic activity against mouse L1210 cells allografted in CDF1 mouse assessed as survival at 10.8 mg/kg qd for 9 days; format: functional, organism-based; design: dose 10.8 mg/kg
L1210 [18] = test: Antineoplastic activity against mouse L1210 cells allografted in CDF1 mouse at 10.8 mg/kg qd for 9 days relative to control; format: functional
L1210 [19] = test: Antineoplastic activity against mouse L1210 cells allografted in CDF1 mouse assessed as survival at 4 mg/kg qd for 9 days; format: functional, organism-based; design: dose 4 mg/kg
L1210 [20] = test: Antineoplastic activity against mouse L1210 cells allografted in CDF1 mouse at 4 mg/kg qd for 9 days relative to control; format: functional
L1210 [21] = test: Antineoplastic activity against mouse L1210 cells allografted in CDF1 mouse assessed as survival at 2 mg/kg qd for 9 days; format: functional, organism-based; design: dose 2 mg/kg
L1210 [22] = test: Antineoplastic activity against mouse L1210 cells allografted in CDF1 mouse at 2 mg/kg qd for 9 days relative to control; format: functional
L1210 [23] = test: Antineoplastic activity against mouse L1210 cells allografted in CDF1 mouse assessed as survival at 1 mg/kg qd for 9 days; format: functional, organism-based; design: dose 1 mg/kg
L1210 [24] = test: Antineoplastic activity against mouse L1210 cells allografted in CDF1 mouse at 1 mg/kg qd for 9 days relative to control; format: functional
P388 [25] = test: Antineoplastic activity against mouse P388 cells allografted in CDF1 mouse assessed as survival at 2 mg/kg qd for 9 days; format: functional, organism-based; design: dose 2 mg/kg
P388 [26] = test: Antineoplastic activity against mouse P388 cells allografted in CDF1 mouse at 2 mg/kg qd for 9 days relative to control; format: functional
P388 [27] = test: Antineoplastic activity against mouse P388 cells allografted in CDF1 mouse assessed as survival at 1 mg/kg qd for 9 days; format: functional, organism-based; design: dose 1 mg/kg
P388 [28] = test: Antineoplastic activity against mouse P388 cells allografted in CDF1 mouse at 1 mg/kg qd for 9 days relative to control; format: functional
P388 [29] = test: Antineoplastic activity against mouse P388 cells allografted in CDF1 mouse assessed as survival at 0.5 mg/kg qd for 9 days; format: functional, organism-based; design: dose 0.5 mg/kg
P388 [30] = test: Antineoplastic activity against mouse P388 cells allografted in CDF1 mouse at 0.5 mg/kg qd for 9 days relative to control; format: functional
P388 [31] = test: Antineoplastic activity against mouse P388 cells allografted in CDF1 mouse assessed as survival at 0.25 mg/kg qd for 9 days; format: functional, organism-based; design: dose 0.25 mg/kg
P388 [32] = test: Antineoplastic activity against mouse P388 cells allografted in CDF1 mouse at 0.25 mg/kg qd for 9 days relative to control; format: functional
P388 [33] = test: Antineoplastic activity against mouse P388 cells allografted in CDF1 mouse assessed as survival at 0.12 mg/kg qd for 9 days; format: functional, organism-based; design: dose 0.12 mg/kg
P388 [34] = test: Antineoplastic activity against mouse P388 cells allografted in CDF1 mouse at 0.12 mg/kg qd for 9 days relative to control; format: functional
P388 [35] = test: Antineoplastic activity against mouse P388 cells allografted in CDF1 mouse assessed as survival at 0.06 mg/kg qd for 9 days; format: functional, organism-based; design: dose 0.06 mg/kg
P388 [36] = test: Antineoplastic activity against mouse P388 cells allografted in CDF1 mouse at 0.06 mg/kg qd for 9 days relative to control; format: functional

SMILES: O=C1c2c(O)ccc(O)c2C(=O)c2c(NCCNCCO)ccc(NCCNCCO)c21 [MITOXANTRONE]
- Activity (B16 [1]): Active
- T/C (B16 [2]): 231%
- Activity (B16 [3]): Active
- T/C (B16 [4]): 342%
- Activity (B16 [5]): Active
- T/C (B16 [6]): 299%
- Activity (B16 [7]): Active
- T/C (B16 [8]): 186%
- Activity (Colon 26 [9]): Active
- T/C (Colon 26 [10]): 353%
- Activity (Colon 26 [11]): Active
- T/C (Colon 26 [12]): 305%
- Activity (Colon 26 [13]): Active
- T/C (Colon 26 [14]): 259%
- Activity (L1210 [15]): Active
- T/C (L1210 [16]): 308%
- Activity (L1210 [17]): Active
- T/C (L1210 [18]): 261%
- Activity (L1210 [19]): Active
- T/C (L1210 [20]): 256%
- Activity (L1210 [21]): Active
- T/C (L1210 [22]): 198%
- Activity (L1210 [23]): Active
- T/C (L1210 [24]): 163%
- Activity (P388 [25]): Active
- T/C (P388 [26]): 230%
- Activity (P388 [27]): Active
- T/C (P388 [28]): 381%
- Activity (P388 [29]): Active
- T/C (P388 [30]): 305%
- Activity (P388 [31]): Active
- T/C (P388 [32]): 224%
- Activity (P388 [33]): Active
- T/C (P388 [34]): 210%
- Activity (P388 [35]): Active
- T/C (P388 [36]): 192%

From ChEMBL document CHEMBL3244053, “Structural modification study of bis(substituted aminoalkylamino)anthraquinones. An evaluation of the relationship of the [2-[(2-hydroxyethyl)amino]ethyl]amino side chain with antineoplastic activity” (1979)
